The values below come from patent US20210371855A1, “METHODS OF INHIBITING PROLIFERATIVE CELLS” (IDEAYA BIOSCIENCES, INC., priority 2018, published 2021).

For one assay, the system named is MMR-deficient cells. Conditions: Yan et al. 2003; cited from earlier work.
In a further assay the test system is MLH1 reexpressing cells. Put plainly: 6-thioguanine sensitivity of MLH1 reexpressing cells. Conditions: FIG. 8C. It is filed as cell-based.
The next assay concerns MMR-proficient cells. Conditions: Yan et al. 2003; cited from earlier work.
The subject of assay [1] is MSS cell lines, SW620 and SW948. Put plainly: Proliferation with WRN inhibitors, IncuCyte live-cell counting over 6 days. The assay is classed as cell-based. Conditions: SW620 and SW948, 6 days, FIG. 12. The protocol: (§1) Cell lines were infected with NucLight Red lentivirus (Essen Biosciences cat #4476) to express a red fluorescent protein in the nucleus thus enabling live-cell counting. Two cell lines with high microsatellite instability (MSI), HCT116 and RKO, and two microsatellite stable (MSS) cell lines, SW620 and SW948, were treated with WRN inhibitors, NSC 19630 (Calbiochem cat #681647) and NSC 617145 (Sigma cat #SML 1005) as follows. Cells were counted and seeded in triplicate into a 96-well plate (500 cells/well for MSI and 1000 cells/well for MSS). The next day, the cells were treated with compounds and monitored over 6 days in an IncuCyte ZOOM instrument. The cell count from the last time point was used to calculate IC50 values using GraphPad Prism 7.

Assay [2] has as its system MSI cell lines, HCT116 and RKO. Described as above. As to conditions: FIG. 12. The assay is classed as cell-based. The protocol:
as §1

Regarding `Nc1nc2nc[nH]c2c(=S)[nH]1` [6-TG, 6-thioguanine], the “sensitivity of cells to 6-thioguanine” value in the assay with MMR-deficient cells is “resistant”; in the assay on MMR-proficient cells, “sensitive”. In the assay on MLH1 reexpressing cells, the “sensitivity of cells to 6-TG” value is “more sensitive”.
As for `CCC(=O)OCN1C(=O)C=CC1=O` [NSC 19630], in assay [1], the “sensitivity of MSS cell lines to the inhibitors” value is “differences in sensitivity”. Also, the “effect on proliferation of MSI cell lines” value in assay [2] is reported as “decreased proliferation”.
The matching figures for `CC(C)(CN1C(=O)C(Cl)=C(Cl)C1=O)CN1C(=O)C(Cl)=C(Cl)C1=O` [NSC 617145]: “differences in sensitivity” and “decreased proliferation”.
